How the values were obtained:
Salmonella typhimurium [1] = test: Mutagenic activity in Salmonella Typhimurium TA97 assessed as number of his+ revertants at 100 ug/plate after 48 to 72 hrs by Ames test in absence of S9 fraction; assay type: toxicity, organism-based; conditions: salmonella enterica subsp. enterica serovar typhimurium
Salmonella typhimurium [2] = test: Mutagenic activity in Salmonella Typhimurium TA97 assessed as number of his+ revertants at 100 ug/plate after 48 to 72 hrs by Ames test in presence of S9 fraction; assay type: toxicity, organism-based; conditions: salmonella enterica subsp. enterica serovar typhimurium
Salmonella typhimurium [3] = test: Mutagenic activity in Salmonella Typhimurium TA97 assessed as number of his+ revertants at 500 ug/plate after 48 to 72 hrs by Ames test in absence of S9 fraction; assay type: toxicity, organism-based; conditions: salmonella enterica subsp. enterica serovar typhimurium
Salmonella typhimurium [4] = test: Mutagenic activity in Salmonella Typhimurium TA97 assessed as number of his+ revertants at 500 ug/plate after 48 to 72 hrs by Ames test in presence of S9 fraction; assay type: toxicity, organism-based; conditions: salmonella enterica subsp. enterica serovar typhimurium
Salmonella typhimurium [5] = test: Mutagenic activity in Salmonella Typhimurium TA97 assessed as number of his+ revertants at 1000 ug/plate after 48 to 72 hrs by Ames test in absence of S9 fraction; assay type: toxicity, organism-based; conditions: salmonella enterica subsp. enterica serovar typhimurium
Salmonella typhimurium [6] = test: Mutagenic activity in Salmonella Typhimurium TA97 assessed as number of his+ revertants at 1000 ug/plate after 48 to 72 hrs by Ames test in presence of S9 fraction; assay type: toxicity, organism-based; conditions: salmonella enterica subsp. enterica serovar typhimurium
Salmonella typhimurium [7] = test: Mutagenic activity in Salmonella Typhimurium TA98 assessed as number of his+ revertants at 100 ug/plate after 48 to 72 hrs by Ames test in absence of S9 fraction; assay type: toxicity, organism-based; conditions: salmonella enterica subsp. enterica serovar typhimurium
Salmonella typhimurium [8] = test: Mutagenic activity in Salmonella Typhimurium TA98 assessed as number of his+ revertants at 100 ug/plate after 48 to 72 hrs by Ames test in presence of S9 fraction; assay type: toxicity, organism-based; conditions: salmonella enterica subsp. enterica serovar typhimurium
Salmonella typhimurium [9] = test: Mutagenic activity in Salmonella Typhimurium TA98 assessed as number of his+ revertants at 500 ug/plate after 48 to 72 hrs by Ames test in absence of S9 fraction; assay type: toxicity, organism-based; conditions: salmonella enterica subsp. enterica serovar typhimurium
Salmonella typhimurium [10] = test: Mutagenic activity in Salmonella Typhimurium TA98 assessed as number of his+ revertants at 500 ug/plate after 48 to 72 hrs by Ames test in presence of S9 fraction; assay type: toxicity, organism-based; conditions: salmonella enterica subsp. enterica serovar typhimurium
Salmonella typhimurium [11] = test: Mutagenic activity in Salmonella Typhimurium TA98 assessed as number of his+ revertants at 1000 ug/plate after 48 to 72 hrs by Ames test in absence of S9 fraction; assay type: toxicity, organism-based; conditions: salmonella enterica subsp. enterica serovar typhimurium
Salmonella typhimurium [12] = test: Mutagenic activity in Salmonella Typhimurium TA98 assessed as number of his+ revertants at 1000 ug/plate after 48 to 72 hrs by Ames test in presence of S9 fraction; assay type: toxicity, organism-based; conditions: salmonella enterica subsp. enterica serovar typhimurium
Salmonella typhimurium [13] = test: Mutagenic activity in Salmonella Typhimurium TA100 assessed as number of his+ revertants at 100 ug/plate after 48 to 72 hrs by Ames test in absence of S9 fraction; assay type: toxicity, organism-based; conditions: salmonella enterica subsp. enterica serovar typhimurium
Salmonella typhimurium [14] = test: Mutagenic activity in Salmonella Typhimurium TA100 assessed as number of his+ revertants at 100 ug/plate after 48 to 72 hrs by Ames test in presence of S9 fraction; assay type: toxicity, organism-based; conditions: salmonella enterica subsp. enterica serovar typhimurium
Salmonella typhimurium [15] = test: Mutagenic activity in Salmonella Typhimurium TA100 assessed as number of his+ revertants at 500 ug/plate after 48 to 72 hrs by Ames test in absence of S9 fraction; assay type: toxicity, organism-based; conditions: salmonella enterica subsp. enterica serovar typhimurium
Salmonella typhimurium [16] = test: Mutagenic activity in Salmonella Typhimurium TA100 assessed as number of his+ revertants at 500 ug/plate after 48 to 72 hrs by Ames test in presence of S9 fraction; assay type: toxicity, organism-based; conditions: salmonella enterica subsp. enterica serovar typhimurium
Salmonella typhimurium [17] = test: Mutagenic activity in Salmonella Typhimurium TA100 assessed as number of his+ revertants at 1000 ug/plate after 48 to 72 hrs by Ames test in absence of S9 fraction; assay type: toxicity, organism-based; conditions: salmonella enterica subsp. enterica serovar typhimurium
Salmonella typhimurium [18] = test: Mutagenic activity in Salmonella Typhimurium TA100 assessed as number of his+ revertants at 1000 ug/plate after 48 to 72 hrs by Ames test in presence of S9 fraction; assay type: toxicity, organism-based; conditions: salmonella enterica subsp. enterica serovar typhimurium
Salmonella typhimurium [19] = test: Mutagenic activity in Salmonella Typhimurium TA102 assessed as number of his+ revertants at 100 ug/plate after 48 to 72 hrs by Ames test in absence of S9 fraction; assay type: toxicity, organism-based; conditions: salmonella enterica subsp. enterica serovar typhimurium
Salmonella typhimurium [20] = test: Mutagenic activity in Salmonella Typhimurium TA102 assessed as number of his+ revertants at 100 ug/plate after 48 to 72 hrs by Ames test in presence of S9 fraction; assay type: toxicity, organism-based; conditions: salmonella enterica subsp. enterica serovar typhimurium
Salmonella typhimurium [21] = test: Mutagenic activity in Salmonella Typhimurium TA102 assessed as number of his+ revertants at 500 ug/plate after 48 to 72 hrs by Ames test in absence of S9 fraction; assay type: toxicity, organism-based; conditions: salmonella enterica subsp. enterica serovar typhimurium
Salmonella typhimurium [22] = test: Mutagenic activity in Salmonella Typhimurium TA102 assessed as number of his+ revertants at 500 ug/plate after 48 to 72 hrs by Ames test in presence of S9 fraction; assay type: toxicity, organism-based; conditions: salmonella enterica subsp. enterica serovar typhimurium
Salmonella typhimurium [23] = test: Mutagenic activity in Salmonella Typhimurium TA102 assessed as number of his+ revertants at 1000 ug/plate after 48 to 72 hrs by Ames test in presence of S9 fraction; assay type: toxicity, organism-based; conditions: salmonella enterica subsp. enterica serovar typhimurium
L929 = test: Genotoxicity against mouse L929 cells assessed as number of micronuclei at 100 ug/ml; assay type: toxicity, cell-based
Salmonella typhimurium [24] = test: Cytotoxicity against Salmonella Typhimurium TA102 assessed as reduction in his+ revertants after 48 to 72 hrs in presence of S9 fraction; assay type: functional, Salmonella enterica subsp. enterica serovar Typhimurium; set-up: scale not given: the % may be the effect or the level left
Salmonella typhimurium [25] = test: Cytotoxicity against Salmonella Typhimurium TA97 assessed as growth inhibition after 48 to 72 hrs; assay type: functional, Salmonella enterica subsp. enterica serovar Typhimurium; set-up: scale not given: the % may be the effect or the level left
Salmonella typhimurium [26] = test: Cytotoxicity against Salmonella Typhimurium TA100 assessed as growth inhibition after 48 to 72 hrs; assay type: functional, Salmonella enterica subsp. enterica serovar Typhimurium; set-up: scale not given: the % may be the effect or the level left
Salmonella typhimurium [27] = test: Cytotoxicity against Salmonella Typhimurium TA97 assessed as reduction in his+ revertants after 48 to 72 hrs in presence of S9 fraction; assay type: functional, Salmonella enterica subsp. enterica serovar Typhimurium; set-up: scale not given: the % may be the effect or the level left
Salmonella typhimurium [28] = test: Cytotoxicity against Salmonella Typhimurium TA98 assessed as reduction in his+ revertants after 48 to 72 hrs in presence of S9 fraction; assay type: functional, Salmonella enterica subsp. enterica serovar Typhimurium; set-up: scale not given: the % may be the effect or the level left
Salmonella typhimurium [29] = test: Cytotoxicity against Salmonella Typhimurium TA100 assessed as reduction in his+ revertants after 48 to 72 hrs in presence of S9 fraction; assay type: functional, Salmonella enterica subsp. enterica serovar Typhimurium; set-up: scale not given: the % may be the effect or the level left
Salmonella typhimurium [30] = test: Mutagenic activity in Salmonella Typhimurium TA102 assessed as number of his+ revertants at 1000 ug/plate after 48 to 72 hrs by Ames test in absence of S9 fraction; assay type: toxicity, organism-based; conditions: salmonella enterica subsp. enterica serovar typhimurium
Salmonella typhimurium [31] = test: Cytotoxicity against Salmonella Typhimurium TA102 assessed as reduction in his+ revertants after 48 to 72 hrs in absence of S9 fraction; assay type: functional, Salmonella enterica subsp. enterica serovar Typhimurium; set-up: scale not given: the % may be the effect or the level left
Salmonella typhimurium [32] = test: Cytotoxicity against Salmonella Typhimurium TA102 assessed as growth inhibition oh his+ revertants after 48 to 72 hrs; assay type: functional, Salmonella enterica subsp. enterica serovar Typhimurium; set-up: scale not given: the % may be the effect or the level left

SMILES	Activity (Salmonella typhimurium [1])	Activity (Salmonella typhimurium [2])	Activity (Salmonella typhimurium [3])	Activity (Salmonella typhimurium [4])	Activity (Salmonella typhimurium [5])	Activity (Salmonella typhimurium [6])	Activity (Salmonella typhimurium [7])	Activity (Salmonella typhimurium [8])	Activity (Salmonella typhimurium [9])	Activity (Salmonella typhimurium [10])	Activity (Salmonella typhimurium [11])	Activity (Salmonella typhimurium [12])	Activity (Salmonella typhimurium [13])	Activity (Salmonella typhimurium [14])	Activity (Salmonella typhimurium [15])	Activity (Salmonella typhimurium [16])	Activity (Salmonella typhimurium [17])	Activity (Salmonella typhimurium [18])	Activity (Salmonella typhimurium [19])	Activity (Salmonella typhimurium [20])	other results
C/C=C/c1cc(OC)c(OC)c(OC)c1	109	194	88	164	73	155	30	30	24	18	32	15	109	119	88	108	73	87	241	281	Activity (Salmonella typhimurium [21]): 155; Activity (Salmonella typhimurium [22]): 236; Activity (Salmonella typhimurium [23]): 165; Activity (L929): 1.74%; Activity (Salmonella typhimurium [24]): 22%; Activity (Salmonella typhimurium [25]): 59%; Activity (Salmonella typhimurium [26]): 44%; Activity (Salmonella typhimurium [27]): 22%; Activity (Salmonella typhimurium [28]): 22%; Activity (Salmonella typhimurium [29]): 22%
C/C=C/c1c(OC)ccc(OC)c1OC.CC(C)CCC[C@@H](C)[C@H]1CC[C@H]2[C@@H]3CC=C4C[C@@H](O)CC[C@]4(C)[C@H]3CC[C@]12C	153	191	137	126	141	171	26	35	26	27	23	42	112	188	104	186	96	162	270	270	Activity (Salmonella typhimurium [21]): 159; Activity (Salmonella typhimurium [22]): 162; Activity (Salmonella typhimurium [30]): 90; Activity (Salmonella typhimurium [23]): 49; Activity (L929): 1.61%; Activity (Salmonella typhimurium [31]): 43%; Activity (Salmonella typhimurium [24]): 46%; Activity (Salmonella typhimurium [32]): 28%
